Reference: patent US20240065988A1, “COMBINED USE OF KETAMINE AND RETIGABINE (EZOGABINE) FOR THE TREATMENT OF PSYCHIATRIC DISORDERS” (Yeda Research and Development Co. Ltd., priority 2021, published 2024)
Entries after “also recorded” stand apart in the source; their conditions may differ.

Tests used:
[1] = system: ventral hippocampus bulk tissue; assay: Bulk qPCR mRNA levels in brain punches (tissue homogenates) from the vHipp; type: in vivo, mouse; settings: ketamine 10 mg/kg, 2 days
[2] = system: treatment-resistant patients; settings: single sub-anesthetic dose; cited from earlier work
CD-1 mice = assay: Social Box (SB) behavioral response, ketamine response score P-KET (PLS-DA); type: in vivo, mouse
CSDS mice (Nex-Cre-Ai9) = assay: Forced swim test in chronic social defeat stress (CSDS) mice; settings: ketamine 10 mg/kg i.p. vs saline, two days after treatment
Kcnq2 mRNA = Kcnq2 mRNA (qPCR) in the vHipp of CSDS mice, FACS-sorted cells and bulk; settings: ketamine vs saline
[3] = system: KCNQ channel (KCNQ2/3, M-current); assay: Ex vivo patch-clamp recording of IM current density in CA1 pyramidal neurons of acute vHipp slices; design: species or system mouse; settings: ketamine 10 mg/kg BW i.p., 36 hours before slice preparation vs saline
mice = assay: Home cage activity (locomotion); type: in vivo, mouse; settings: 60-min period following treatment and 2 days post injection
Procedure: The home cage activity was measured with the Mouse-E-Motion infrared-detecting devices (Infra-e-motion, Germany). Mice were single housed in fresh cages, and a metal food tray was employed to hold the devices in place. The base bedding was kept, but extra nesting materials that could conceal the animal were removed. The readout lasted 2 days (post-injection) during which time the animals were not disturbed. Locomotor activity was detected in 5-minute increments and averaged by the hour. The final analysis was applied to the first 60-minute period and the 48 hours (2 days), post injection.

[4] = system: CD-1 mice injected with shRNA-Kcnq2 or shRNA-control AAV; assay: Forced swim test after AAV shRNA knockdown of Kcnq2 in the vHipp; type: in vivo, mouse

CNC1(c2ccccc2Cl)CCCCC1=O (racemic) [ketamine, (R,S)-ketamine]
bulk mRNA expression of the 8 genes, ketamine vs saline [1]: did not reach statistical significance | duration of antidepressant response [2]: up to 7 days | onset of antidepressant response [2]: within hours | response to ketamine (P-KET) in the SB vs saline (CD-1 mice; ketamine 10 mg/kg): significant difference | SB behavioral readouts (PLSDA classifier) (CD-1 mice; ketamine 10 mg/kg/BW i.p.): spent more time exploring in an open area of the SB arena; also recorded: more social and anxiolytic behaviors | immobility time during the FST (CSDS mice (Nex-Cre-Ai9)): significant decrease in immobility time | Kcnq2 mRNA expression (Kcnq2 mRNA; bulk mRNA): no significant increase of Kcnq2 mRNA | Kcnq2 mRNA expression (Kcnq2 mRNA; glutamatergic neurons (tdTomato+)): significantly increased to baseline levels | Kcnq2 mRNA expression (Kcnq2 mRNA; tdTomato negative cells): no significant differences | IM current density [3]: significant increase in IM current density | locomotor activity (home cage), ketamine vs saline (mice): no differences in total activity between groups; also recorded: no significant difference in the locomotion activity | antidepressant-like effects of ketamine in the FST ([4]; mice expressing the shRNA-Kcnq2 virus, ketamine 10 mg/kg BW): no longer detected | immobility time during the FST ([4]; shRNA-scramble control mice, ketamine 10 mg/kg BW vs saline): significant decrease in immobility time
